Test results: ChEMBL document CHEMBL5233229, “Recent advances in the development of ubiquitin-specific-processing protease 7 (USP7) inhibitors” (Eur J Med Chem, 2020)

Tests used:
[1] = molecular target: T1, Ubiquitin carboxyl-terminal hydrolase 7 (Homo sapiens, UniProt Q93009); experiment: Inhibition of human USP7 using ubiquitin-Rh110 as substrate incubated for 23 to 45 mins by fluorescence based assay
[2] = molecular target: T1, Ubiquitin carboxyl-terminal hydrolase 7; experiment: Inhibition of human USP7 using Ub-EKL as substrate

T1 sequence (Q93009 whole entry): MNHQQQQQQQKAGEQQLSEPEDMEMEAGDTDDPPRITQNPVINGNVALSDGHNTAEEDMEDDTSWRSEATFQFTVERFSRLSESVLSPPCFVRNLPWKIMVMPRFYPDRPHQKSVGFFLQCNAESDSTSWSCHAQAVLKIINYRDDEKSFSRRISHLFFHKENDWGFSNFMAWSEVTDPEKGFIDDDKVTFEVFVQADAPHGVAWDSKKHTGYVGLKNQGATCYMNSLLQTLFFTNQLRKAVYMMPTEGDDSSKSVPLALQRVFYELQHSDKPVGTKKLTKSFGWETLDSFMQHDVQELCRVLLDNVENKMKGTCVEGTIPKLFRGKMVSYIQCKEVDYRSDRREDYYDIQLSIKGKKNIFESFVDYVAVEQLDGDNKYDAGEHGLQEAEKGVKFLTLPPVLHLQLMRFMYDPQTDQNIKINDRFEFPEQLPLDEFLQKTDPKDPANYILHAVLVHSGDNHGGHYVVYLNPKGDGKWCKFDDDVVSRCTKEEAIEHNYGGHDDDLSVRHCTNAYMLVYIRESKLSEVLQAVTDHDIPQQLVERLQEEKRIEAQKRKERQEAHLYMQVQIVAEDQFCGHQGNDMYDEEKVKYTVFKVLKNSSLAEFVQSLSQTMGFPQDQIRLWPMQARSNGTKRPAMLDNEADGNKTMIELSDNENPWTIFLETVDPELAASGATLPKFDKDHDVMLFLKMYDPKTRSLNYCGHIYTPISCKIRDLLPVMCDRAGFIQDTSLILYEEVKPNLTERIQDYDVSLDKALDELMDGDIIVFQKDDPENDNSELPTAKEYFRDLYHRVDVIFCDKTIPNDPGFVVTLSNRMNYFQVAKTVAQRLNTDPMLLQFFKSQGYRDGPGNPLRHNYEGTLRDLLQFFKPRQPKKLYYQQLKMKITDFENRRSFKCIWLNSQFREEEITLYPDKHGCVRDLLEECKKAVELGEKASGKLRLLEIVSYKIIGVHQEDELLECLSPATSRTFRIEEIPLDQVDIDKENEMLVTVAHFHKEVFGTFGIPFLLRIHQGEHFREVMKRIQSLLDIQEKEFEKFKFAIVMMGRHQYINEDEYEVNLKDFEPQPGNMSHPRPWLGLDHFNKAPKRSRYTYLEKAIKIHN

Compound	IC50 [1] [µM]	EC50 [2] [µM]
C[C@H](CC(=O)N1CCC(O)(Cn2cnn3cccc3c2=O)CC1)c1ccccc1	< 0.2	–
Cc1cc2c(=O)n(CC3(O)CCN(C(=O)C(C)Cc4ccccc4)CC3)cnn2c1 (stereo not drawn)	1	–
CC(CC(=O)N1CCC(O)(Cn2cnn3cccc3c2=O)CC1)c1ccccc1 (stereo not drawn)	< 1	–
O=C(c1ccc(-c2cccc(C(=O)N3CCC(O)(Cn4cnn5cccc5c4=O)CC3)c2)cc1)N1CCCC1	1	–
O=C(c1cccc(-c2ccc3c(c2)OCO3)c1)N1CCC(O)(Cn2cnn3cccc3c2=O)CC1	1	–
O=C(c1ccc(-c2ccc3ncccc3c2)cc1)N1CCC(O)(Cn2cnn3cccc3c2=O)CC1	1	–
Cc1ccc(-c2cccc(C(=O)N3CCC(O)(Cn4cnn5cccc5c4=O)CC3)c2)cc1	1	–
CC(CC(=O)N1CCC(O)(Cn2cnn3cccc3c2=O)CC1)n1cccc1 (stereo not drawn)	< 0.2	–
O=C(c1cccc(-c2cccc(F)c2)c1)N1CCC(O)(Cn2cnn3cccc3c2=O)CC1	1	–
Cc1ccc(-c2ncc3c(=O)n(CC4(O)CCN(C(=O)CC(C)n5cccn5)CC4)cnn23)cc1 (stereo not drawn)	1	–
O=C(c1cccc(-c2ccccc2F)c1)N1CCC(O)(Cn2cnn3cccc3c2=O)CC1	1	–
O=C(c1ccc(F)cc1)N1CCC(O)(Cn2cnn3c(-c4ccc(F)cc4)ncc3c2=O)CC1	1	–
Cc1cc2c(=O)n(CC3(O)CCN(C(=O)CC(C)c4ccccc4)CC3)cnn2c1 (stereo not drawn)	1	–
O=C(c1ccc(-c2ccc(C(=O)N3CCC(O)(Cn4cnn5cccc5c4=O)CC3)c(Cl)c2)cc1)N1CCCCC1	1	–
O=C(c1ccccc1)N1CCC(O)(Cn2cnn3c(-c4ccccc4)ncc3c2=O)CC1	1	–
Cc1cc(C(F)(F)F)nn1Cc1ccc(C(=O)N2CCC(O)(Cn3cnn4cccc4c3=O)CC2)cc1	1	–
COc1ccc(-c2cccc(C(=O)N3CCC(O)(Cn4cnn5cccc5c4=O)CC3)c2)cc1	1	–
O=C(c1ccc(S(=O)(=O)c2ccccc2)cc1)N1CCC(O)(Cn2cnn3cccc3c2=O)CC1	1	–

Compound	IC50 [1] [µM]	EC50 [2] [µM]
CCC(Cc1ccccc1)C(=O)N1CCC(O)(Cn2cnn3cccc3c2=O)CC1 (stereo not drawn)	1	–
Cc1ccc2c(=O)n(CC3(O)CCN(C(=O)C(C)Cc4ccccc4)CC3)cnn12 (stereo not drawn)	1	–
O=C(c1cccc(-c2ccccc2)c1)N1CCC(O)(Cn2cnn3cccc3c2=O)CC1	1	–
O=C(c1ccc(Cn2cnc3ccccc32)cc1)N1CCC(O)(Cn2cnn3cccc3c2=O)CC1	1	–
O=C(c1cccc(-c2ccc3ncccc3c2)c1)N1CCC(O)(Cn2cnn3cccc3c2=O)CC1	1	–
O=C(c1ccc(Cn2nnc3ccccc32)cc1)N1CCC(O)(Cn2cnn3cccc3c2=O)CC1	1	–
Cc1ccc(-c2ncc3c(=O)n(CC4(O)CCN(C(=O)C[C@H](C)n5cccn5)CC4)cnn23)cc1	1	–
Cc1ccc2c(=O)n(CC3(O)CCN(C(=O)CC(C)c4ccccc4)CC3)cnn12 (stereo not drawn)	< 1	–
O=C(c1ccc(-n2cccn2)cc1)N1CCC(O)(Cn2cnn3c(-c4ccc(F)cc4)ncc3c2=O)CC1	1	–
CC(C)(C)C(Cc1ccccc1)C(=O)N1CCC(O)(Cn2cnn3cccc3c2=O)CC1 (stereo not drawn)	1	–
O=C(c1ccc(Sc2ccccc2)cc1)N1CCC(O)(Cn2cnn3cccc3c2=O)CC1	1	–
O=C(c1ccc(-c2ccc(C(=O)N3CCC(O)(Cn4cnn5cccc5c4=O)CC3)c(C3CCCC3)c2)cc1)N1CCCC1	1	–
CN(C)C(=O)c1ccc(-c2cccc(C(=O)N3CCC(O)(Cn4cnn5cccc5c4=O)CC3)c2)cc1	1	–
O=C(c1ccc(Cc2cccs2)cc1)N1CCC(O)(Cn2cnn3cccc3c2=O)CC1	1	–
O=C(c1ccc(-c2cnc3ccccc3c2)cc1)N1CCC(O)(Cn2cnn3cccc3c2=O)CC1	1	–
O=C(c1ccccc1)c1ccc(C(=O)N2CCC(O)(Cn3cnn4cccc4c3=O)CC2)cc1	1	–
CCN(c1ccccc1)c1ccc(C(=O)N2CCC(O)(Cn3cnn4cccc4c3=O)CC2)cc1	1	–
CC(C)(c1ccccc1)c1ccc(C(=O)N2CCC(O)(Cn3cnn4cccc4c3=O)CC2)cc1	1	–

Results, then the compound that gave them:

IC50 [1] [µM]	EC50 [2] [µM]	Compound
1	–	O=C(c1cnc(C2CC2)o1)N1CCC(O)(Cn2cnn3c(-c4ccc(F)cc4)ncc3c2=O)CC1
< 1	–	CC(=O)Nc1cc2c(=O)n(CC3(O)CCN(C(=O)C[C@@H](C)c4ccccc4)CC3)cnn2c1
–	1	CC1CS(=O)(=O)c2cc(NC(=O)c3nnc(Sc4c(Cl)cncc4Cl)s3)ccc21 (stereo not drawn)
–	5	O=C(Nc1ccc2c(c1)S(=O)(=O)C=C2)c1sc(Sc2c(Cl)cncc2Cl)nc1C(F)(F)F
–	1	CS(=O)(=O)c1cccc(NC(=O)c2nnc(Sc3c(Cl)cncc3Cl)s2)c1
1	–	Cc1ccc2cc(-c3ccc(C(=O)N4CCC(O)(Cn5cnn6cccc6c5=O)CC4)cc3)ccc2n1
1	–	Cc1cc(C)n(Cc2ccc(C(=O)N3CCC(O)(Cn4cnn5cccc5c4=O)CC3)cc2)n1
1	–	Cc1ccccc1-c1cccc(C(=O)N2CCC(O)(Cn3cnn4cccc4c3=O)CC2)c1
–	< 1	CN(C)CCNC1CS(=O)(=O)c2cc(NC(=O)c3nnc(Sc4c(Cl)cncc4Cl)s3)ccc21 (stereo not drawn)
–	< 1	O=C(Nc1cnccn1)c1nnc(Sc2c(Cl)cncc2Cl)s1
–	< 1	CNS(=O)(=O)c1ccc(NC(=O)c2nnc(Sc3c(Cl)cncc3Cl)s2)cc1
1	–	O=C(c1cccc(-c2cccc(Cl)c2)c1)N1CCC(O)(Cn2cnn3cccc3c2=O)CC1
–	5	O=C(Nc1ccc2c(c1)S(=O)(=O)C=C2)c1cnc(Sc2ccncc2Cl)s1
–	> 10	CN(C)CCCOc1ccc(NC(=O)c2nnc(Sc3c(Cl)cncc3Cl)o2)cc1
–	< 1	O=C(Nc1ccc2c(c1)S(=O)(=O)C=C2)c1nnc(Sc2c(Cl)cncc2Br)s1
–	< 1	CN(C)CCCNc1ccc(NC(=O)c2nnc(Sc3c(Cl)cncc3Cl)s2)cc1
1	–	O=C(c1ccc(Cn2ccnc2)cc1)N1CCC(O)(Cn2cnn3cccc3c2=O)CC1
–	2	CC1CS(=O)(=O)c2cc(NC(=O)c3cnc(Sc4c(Cl)cncc4Cl)s3)ccc21 (stereo not drawn)
–	< 1	O=C(Nc1ccc2c(c1)S(=O)(=O)CC2)c1nnc(Sc2c(Cl)cncc2Cl)s1
–	2	O=C(Nc1ccc2c(c1)S(=O)(=O)C=C2)c1cnc(Sc2c(Cl)cncc2Cl)s1
–	1	O=C(Nc1ccc2c(c1)C(=O)CC2)c1nnc(Sc2c(Cl)cncc2Cl)s1
1	–	C=C(C)C(=O)Nc1ccccc1-c1ccc(C(=O)N2CCC(O)(Cn3cnn4cccc4c3=O)CC2)cc1
< 1	–	Cn1c(-c2cccc(C(=O)N3CCC(O)(Cn4cnn5cccc5c4=O)CC3)c2)cc2ccccc21
–	1	CN(C(=O)c1nnc(Sc2c(Cl)cncc2Cl)s1)c1ccc2c(c1)S(=O)(=O)C=C2

IC50 [1] [µM]	EC50 [2] [µM]	Compound
–	1	O=C(Nc1cnc2ccccc2c1)c1nnc(Sc2c(Cl)cncc2Cl)s1
1	–	O=C(c1cccc(-c2ccc(Cl)cc2)c1)N1CCC(O)(Cn2cnn3cccc3c2=O)CC1
1	–	Cc1ccc2[nH]ncc2c1-c1cccc(C(=O)N2CCC(O)(Cn3cnn4cccc4c3=O)CC2)c1
–	< 1	O=C(Nc1ccc2c(c1)S(=O)(=O)CC2NCCN1CCOCC1)c1nnc(Sc2c(Cl)cncc2Cl)s1 (stereo not drawn)
–	< 1	CN(C)CCCOc1ccc(NC(=O)c2nnc(Sc3c(Cl)cncc3Cl)s2)cc1
–	1	CC(=O)c1cccc(NC(=O)c2nnc(Sc3c(Cl)cncc3Cl)s2)c1
–	< 1	CN(C)CCCOc1ccc(NC(=O)c2nnc(Sc3c(Cl)cncc3Br)s2)cc1
–	< 1	O=C(Nc1cccc(Cl)n1)c1nnc(Sc2c(Cl)cncc2Cl)s1
1	–	O=C(Nc1cc2c(=O)n(CC3(O)CCN(C(=O)C4CC4)CC3)cnn2c1)c1csc(-c2ccccc2)n1
–	< 1	O=C(Nc1ccc2c(c1)S(=O)(=O)C=C2)c1nnc(Sc2c(Cl)cncc2Cl)o1
–	> 10	O=C(Nc1ccc2c(c1)S(=O)(=O)C=C2)c1cnc(Sc2c(Cl)cncc2Cl)o1
1	–	NC(=O)c1ccc(-c2cccc(C(=O)N3CCC(O)(Cn4cnn5cccc5c4=O)CC3)c2)cc1
< 1	–	CNC(=O)Nc1cc2c(=O)n(CC3(O)CCN(C(=O)C[C@@H](C)c4ccccc4)CC3)cnn2c1
–	2	Cc1c(NC(=O)c2nnc(Sc3c(Cl)cncc3Cl)s2)ccc2c1S(=O)(=O)CC2
–	5	O=C(Nc1ccc2c(c1)S(=O)(=O)C=C2)c1nnc(Sc2c(F)cncc2Cl)s1
–	< 1	O=C(Nc1ccc(NCCCN2CCOCC2)cc1)c1nnc(Sc2c(Cl)cncc2Cl)s1
–	> 10	O=C(Nc1ccc2c(c1)S(=O)(=O)C=C2)c1nnc(Sc2c(Cl)cccc2Cl)s1
–	< 1	O=C(Nc1ccc2c(c1)S(=O)(=O)C=C2)c1nnc(Sc2c(Cl)cncc2Cl)s1
1	–	O=C(COc1cccc(Cl)c1Cl)Nc1cc2c(=O)n(CC3(O)CCN(C(=O)C4CC4)CC3)cnn2c1
–	> 10	CN(C)CCCOc1ccc(NC(=O)c2cnc(Sc3c(Cl)cncc3Cl)s2)cc1
1	–	Cc1ccc(OCC(=O)Nc2cc3c(=O)n(CC4(O)CCN(C(=O)C5CC5)CC4)cnn3c2)cc1C
1	–	O=C(c1cccc(-c2ccc3scnc3c2)c1)N1CCC(O)(Cn2cnn3cccc3c2=O)CC1
1	–	CC(CC(=O)N1CCC(O)(Cn2cnn3cc(Cl)cc3c2=O)CC1)c1ccccc1 (stereo not drawn)
